Reference: patent US10272117B2, “Methods of using an activator of cereblon for neural cell expansion and the treatment of central nervous system disorders” (Celgene Corporation, priority 2014, dated 2019)

Tests used:
zebrafish embryos = test: Immunostaining of neurons, proliferating cells, glia and serotonin-positive cells in zebrafish; format: in vivo; conditions: for numbers of serotonin-positive cells / numbers of radial glia cells: 54-55 hpf; for numbers of radial glia cells: Zrf-2
Experimental: Antibody staining of early neurons of zebrafish was performed by the following technique. The embryos 24 to 28 hours after fertilization were fixed at 4° C. for 12 hours in a 4% paraformaldehyde/phosphate buffer (pH 8.0). After washing four times with phosphate buffer, where each wash was performed for 15 minutes, blocking was carried out at normal temperature for one hour in 5% newborn goat serum dissolved in 0.5% Triton X-100/phosphate buffer. Primary antibody reaction was carried out using a monoclonal anti-acetylated tubulin antibody diluted at 1:1000 in the same solution at 4° C. for 12 hours. Then, after washing the embryos similarly with phosphate buffer, secondary antibody reaction was carried out using an anti-mouse antibody conjugated with Alexa Fluoro 488 (Molecular Probes) under the same conditions as those applied in the primary antibody reaction. The embryos were then washed with phosphate buffer and transparentized in 30%/50%/70% glycerol (dissolved in phosphate buffer), and then observed with a fluorescent microscope under excitation at 488 nm.
Two-days-old zebrafish were used (for glia cell staining and serotonin-producing cell staining, zebrafish 56 hours and 49 hours after fertilization were used, respectively). Zebrafish were fixed with 4% paraformaldehyde (PFA) and then washed with phosphate buffer (PBS), followed by treatment with 10 μg/ml protease K for partial digestion of the epidermis. After the digestion reaction, the zebrafish were washed with PBST (PBS+0.5% Triton X-100) for 20 minutes and then fixed with PFA again. The fixed zebrafish were washed with PBST at room temperature for one hour, followed by blocking using PBST+5% goat serum. The resulting specimens were reacted with a monoclonal anti-glia antibody (zrf-1/zrf-2) or a rabbit anti-serotonin antibody at 4° C. overnight (12 to 18 hours). Subsequently, the specimens were washed with PBST+5% goat serum for one hour at room temperature, and secondary antibody reaction was carried out by substituting the antibody for a goat anti-mouse IgG antibody (Cy-2 conjugate for glia cell staining) or a goat anti-rabbit IgG antibody (Cy-5 conjugate for serotonin-producing cell staining) at 4° C. overnight (12 to 18 hours). Subsequently, the specimens were washed with PBST at room temperature for one hour. After washing, PBST was replaced by 30%, 50%, and 70% glycerol/PBS, and the whole zebrafish were mounted on glass slides to obtain preparations. Fluorescence was observed under excitation wavelength of Cy-2 and Cy-5, and the distribution of the glia cells or the serotonin-producing cells was recorded. Glia cells were observed from the lateral side of zebrafish, while the serotonin-producing cells were photographed from the dorsal side in order to observe the distribution of the cells along the midline.
Numbers of primary neurons and proliferating cells were analyzed by immunostaining in untreated and Ikaros-knockdown zebrafish embryos at 27 hpf. FIGS. 17A and 17D show the primary neurons in the CNS of the untreated and the Ikaros-knockdown zebrafish embryos, respectively, at 27 hpf by immunostaining with anti-acetylated tubulin antibody. FIGS. 17B and 17E show the proliferating cells in the CNS of the untreated and the Ikaros-knockdown zebrafish embryos, respectively, at 27 hpf by immunostaining with anti-phospho-histone H3 antibodies. […] Global distribution of the primary neurons was normal as shown (scale bar: 50 μm).
The number of phosphorylated histone H3-positive cells was counted in a stacked focal plane of laser confocal microscope at 27 hpf. The average number of the H3-positive cells in the telencephalon, the diencephalon, and the midbrain was statistically compared between the untreated and the Ikaros-knockdown embryos (n=3 in each experiment).
The numbers of radial glial cells and matured neurons were analyzed in untreated and CRBN-overexpressing zebrafish embryos. […]

zebrafish = test: Resistance to thalidomide in brain development (brain thickness to body length); format: in vivo
Experimental: To analyze the functional relationship between thalidomide and BRD7, brain development of BRD7-knockdown zebrafish treated with thalidomide was examined and compared with that of normal zebrafish treated with thalidomide. […] FIGS. 12A and 12B show the normal zebrafish treated with 400 μM thalidomide. FIGS. 12C and 12D show the BRD7-knockdown zebrafish treated with 400 μM thalidomide. FIGS. 12A′ and 12C′ show the brain regions of the normal zebrafish treated with 400 μM thalidomide. FIGS. 12B′ and 12D′ show the brain regions of the BRD7-knockdown zebrafish treated with 400 μM thalidomide. […] The percentages of brain thickness to body length in the normal and the BRD7-knockdown zebrafish, with or without thalidomide treatments were also measured. […] The brain size of the BRD7-knockdown larvae incubated in thalidomide is 98.8% of that of the BRD7-knockdown larvae incubated in the absence of thalidomide.

Substance	number of the primary neurons in the CNS (zebrafish embryos; 27 hpf, anti-acetylated tubulin)	number of the proliferating cells in the CNS (zebrafish embryos; 27 hpf, anti-phospho-histone H3)	number of H3-positive proliferating cells in telencephalon, diencephalon and midbrain (zebrafish embryos; 27 hpf, n=3)	numbers of serotonin-positive cells (zebrafish embryos)	numbers of radial glia cells (zebrafish embryos)	brain size relative to normal larvae (zebrafish; in 400 μM of thalidomide, n=12)	brain development of BRD7-knockdown larvae (zebrafish; in thalidomide solution (400 μM))	brain size relative to normal larvae (zebrafish; normal E3 medium, without thalidomide treatment)
5′-TTCCTGTGCCTCCTCAGTCTCCATC-3′ (all phosphorodiamidate morpholino (PMO)) [Ikaros-knockdown, 25-mer antisense morpholino oligonucleotide (AMO) used for the Ikaros gene knockdown]	increased	increased	increased	increased	increased			
5′-AGAGCTGTAGCTGGTTCCCCATTTC-3′ (all phosphorodiamidate morpholino (PMO)) [CRBN-knockdown, 25-mer antisense morpholino oligonucleotide (AMO) used for the CRBN gene knockdown, reference compound]				decreased	decreased			
5′-TGTGTTTCTTGTGCTTTTTGCCCAT-3′ (all phosphorodiamidate morpholino (PMO)) [BRD7-knockdown, 25-mer antisense morpholino oligonucleotide (AMO) used for the BRD7 gene knockdown]						140.0%	developed almost normally	120.7%
